Measured values: article PMC8389037, “Design, Synthesis and Antifungal Activity of Stapled Aurein1.2 Peptides” (Antibiotics, 2021)
≈ marks a conversion by molar mass, not a printed value. Where a SMILES comes first, the peptide text is derived from it. Bridges are numbered along the chain shown (N, C = ends). [ ]: non-standard residue; d: D form. S5 = C=CCCC[C@](C)(N)C(=O)O

Legend:
Experiment in all cases: microbe, parasite or virus in culture
[1] = system: C. albicans 901; conditions: for Minimum inhibitory concentration (MIC): 901, 48 h
Method: (§1) The in vitro antifungal activities of the target peptides were evaluated according to protocols from the CLSI. The broth microdilution method was used to determine the minimum inhibitory concentration (MIC) of the target peptides in 96-well plates. Fluconazole was used as a reference drug.
(§2) Clinical isolates of C. albicans SC5314, 901, 904, C. tropicalis ATCC20026 and clinical isolate 895, C. glabrata ATCC1182 and clinical isolate 896, C. krusei ATCC2340, and C. parapsilosis ATCC22010 are from the collection library in the Drug Discovery and Development Center, Naval Medical University, Shanghai, China. C. auris clinical isolates are provided by Linqi Wang (Institute of Microbiology, Chinese Academy of Sciences) and Changbin Chen (Institut Pasteur of Shanghai, Chinese Academy of Sciences). All strains were cultured in YPD (1% yeast extract, 2% peptone, and 2% glucose) liquid medium overnight at 30 °C with shaking at 220 rpm.
(§3) The MICs of chemicals against all strains were determined by the micro broth dilution method according to the Clinical and Laboratory Standards Institute (Wayne PA, Reference Method for Broth Dilution Antifungal Susceptibility Testing of yeasts, approved Standard M27-A3, 3 rd ed; Clinical and Laboratory Standards Institute (CLSI): USA, 2008). The initial concentration of fungal suspension in RPMI 1640 medium was 3–5 × 10^3 colonies forming unit (CFU)/mL, which was added to 96-well plates. Peptides were prepared in dimethyl sulfoxide (DMSO) with an initial stored concentration of 6.4 mg/mL. Serial dilutions were made based on the CLSI M27 guide to obtaining the final concentrations ranging from 0.125 to 64 μg/mL for fluconazole and 0.25 to 128 μg/mL for peptides […]. The plates were incubated at 30 °C for 48 h. Optical density was measured at 630 nm, and background optical densities were subtracted from that of each well. The definition of MIC is the lowest concentration at which 80% of tested strains cannot grow.

[2] = system: C. albicans 904; conditions: for Minimum inhibitory concentration (MIC): 904, 48 h
Method: as §1, §2, §3

[3] = system: C. albicans SC5314; conditions: SC5314, 48 h
Method: as §1, §2, §3

[4] = system: C. auris 918; conditions: for Minimum inhibitory concentration (MIC): 918, 48 h
Method: as §1, §2, §3

[5] = system: C. auris 919; conditions: for Minimum inhibitory concentration (MIC): 919, 48 h
Method: as §1, §2, §3

[6] = system: C. glabrata 896; conditions: for Minimum inhibitory concentration (MIC): 896, 48 h
Method: as §1, §2, §3

[7] = system: C. glabrata ATCC 1182; conditions: for Minimum inhibitory concentration (MIC): ATCC 1182, 48 h
Method: as §1, §2, §3

[8] = system: C. krusei ATCC 2340; conditions: for Minimum inhibitory concentration (MIC): ATCC 2340, 48 h
Method: as §1, §2, §3

[9] = system: C. parapsilosis ATCC 22010; conditions: for Minimum inhibitory concentration (MIC): ATCC 22010, 48 h
Method: as §1, §2, §3

[10] = system: C. tropicalis 895; conditions: for Minimum inhibitory concentration (MIC): 895, 48 h
Method: as §1, §2, §3

[11] = system: C. tropicalis ATCC 20026; conditions: for Minimum inhibitory concentration (MIC): ATCC 20026, 48 h
Method: as §1, §2, §3

[12] = Candidozyma auris, 48 h, read-out: Minimum inhibitory concentration (MIC)

Compound	Minimum inhibitory concentration (MIC) [1]	Minimum inhibitory concentration (MIC) [2]	Minimum inhibitory concentration (MIC) [3]	Minimum inhibitory concentration (MIC) [4]	Minimum inhibitory concentration (MIC) [5]	Minimum inhibitory concentration (MIC) [6]	Minimum inhibitory concentration (MIC) [7]	Minimum inhibitory concentration (MIC) [8]	Minimum inhibitory concentration (MIC) [9]	Minimum inhibitory concentration (MIC) [10]	Minimum inhibitory concentration (MIC) [11]	also measured
CC[C@H](C)[C@H](NC(=O)[C@H](CCCCN)NC(=O)[C@]1(C)CCCC=CCCC[C@](C)(NC(=O)[C@H](CC(C)C)NC(=O)CNC(C)=O)C(=O)N[C@@H](CC(=O)O)C(=O)N[C@@H]([C@@H](C)CC)C(=O)N[C@@H]([C@@H](C)CC)C(=O)N1)C(=O)N[C@@H](C)C(=O)N[C@@H](CCC(=O)O)C(=O)N[C@@H](CO)C(=O)N[C@@H](Cc1ccccc1)C(N)=O [Sau-3] (Ac-GL[S5]DII[S5]KIAESF-NH2; staple 3-7)	>128 µg/mL	>128 µg/mL	>64 µg/mL	>128 µg/mL	>128 µg/mL	>128 µg/mL	>128 µg/mL	>128 µg/mL	>128 µg/mL	>128 µg/mL	>128 µg/mL	
CC[C@H](C)[C@H](NC(=O)[C@H](CCCCN)NC(=O)[C@H](CCCCN)NC(=O)[C@@H](NC(=O)[C@]1(C)CCCC=CCCC[C@](C)(NC(C)=O)C(=O)N[C@@H](CC(C)C)C(=O)N[C@@H](Cc2ccccc2)C(=O)N[C@@H](CC(=O)O)C(=O)N1)[C@@H](C)CC)C(=O)N[C@@H](C)C(=O)N[C@@H](CCC(=O)O)C(=O)N[C@@H](CO)C(=O)N[C@@H](Cc1ccccc1)C(N)=O [Sau-1] (Ac-[S5]LFD[S5]IKKIAESF-NH2; staple 1-5)	32 µg/mL (≈ 20 µM)	>128 µg/mL	>64 µg/mL	>128 µg/mL	>128 µg/mL	>128 µg/mL	>128 µg/mL	>128 µg/mL	128 µg/mL (≈ 79.9 µM)	>128 µg/mL	>128 µg/mL	
OC(Cn1cncn1)(Cn1cncn1)c1ccc(F)cc1F [Fluconazole, reference compound]												MIC ([1]; Candida albicans, 901, 48 h, read-out: Minimum inhibitory concentration (MIC)): > 64 µg/mL; MIC ([2]; Candida albicans, 904, 48 h, read-out: Minimum inhibitory concentration (MIC)): > 64 µg/mL; MIC ([3]; Candida albicans, read-out: Minimum inhibitory concentration (MIC)): 0.5 µg/mL (≈ 1.63 µM); MIC [4, 12]: > 128 µg/mL; MIC [5, 12]: > 128 µg/mL; MIC ([6]; Nakaseomyces glabratus, 48 h, read-out: Minimum inhibitory concentration (MIC)): > 128 µg/mL; MIC ([7]; Nakaseomyces glabratus, ATCC1182, 48 h, read-out: Minimum inhibitory concentration (MIC)): 2 µg/mL (≈ 6.53 µM); MIC ([8]; Pichia kudriavzevii, ATCC2340, 48 h, read-out: Minimum inhibitory concentration (MIC)): 64 µg/mL (≈ 209 µM); MIC ([9]; Lodderomyces parapsilosis, ATCC22010, 48 h, read-out: Minimum inhibitory concentration (MIC)): 1 µg/mL (≈ 3.27 µM); MIC ([10]; Candida tropicalis, 895, 48 h, read-out: Minimum inhibitory concentration (MIC)): > 128 µg/mL; MIC ([11]; Candida tropicalis, ATCC20026, 48 h, read-out: Minimum inhibitory concentration (MIC)): 1 µg/mL (≈ 3.27 µM)
CC[C@H](C)[C@@H]1NC(=O)[C@H](CCCCN)NC(=O)[C@@](C)(NC(=O)[C@@H](NC(=O)[C@@H](NC(=O)[C@H](CC(=O)O)NC(=O)[C@H](Cc2ccccc2)NC(=O)[C@H](CC(C)C)NC(=O)CNC(C)=O)[C@@H](C)CC)[C@@H](C)CC)CCCC=CCCC[C@@](C)(C(=O)N[C@@H](CO)C(=O)N[C@@H](Cc2ccccc2)C(N)=O)NC(=O)[C@H](C)NC1=O [Sau-7] (Ac-GLFDII[S5]KIA[S5]SF-NH2; staple 7-11)	>128 µg/mL	>128 µg/mL	>64 µg/mL	>128 µg/mL	>128 µg/mL	>128 µg/mL	>128 µg/mL	>128 µg/mL	>128 µg/mL	>128 µg/mL	>128 µg/mL	
CC[C@H](C)[C@H](NC(=O)[C@H](CCCCN)NC(=O)[C@H](CCCCN)NC(=O)[C@]1(C)CCCC=CCCC[C@](C)(NC(=O)CNC(C)=O)C(=O)N[C@@H](Cc2ccccc2)C(=O)N[C@@H](CC(=O)O)C(=O)N[C@@H]([C@@H](C)CC)C(=O)N1)C(=O)N[C@@H](C)C(=O)N[C@@H](CCC(=O)O)C(=O)N[C@@H](CO)C(=O)N[C@@H](Cc1ccccc1)C(N)=O [Sau-2] (Ac-G[S5]FDI[S5]KKIAESF-NH2; staple 2-6)	>128 µg/mL	>128 µg/mL	>64 µg/mL	>128 µg/mL	>128 µg/mL	128 µg/mL (≈ 82.8 µM)	>128 µg/mL	>128 µg/mL	>128 µg/mL	16 µg/mL (≈ 10.4 µM)	>128 µg/mL	
CC[C@H](C)[C@H](NC(=O)[C@H](CC(=O)O)NC(=O)[C@H](Cc1ccccc1)NC(=O)[C@H](CC(C)C)NC(=O)CNC(C)=O)C(=O)N[C@H](C(=O)N[C@@H](CCCCN)C(=O)N[C@@]1(C)CCCC=CCCC[C@@](C)(C(=O)N[C@@H](Cc2ccccc2)C(N)=O)NC(=O)[C@H](CCC(=O)O)NC(=O)[C@H](C)NC(=O)[C@H]([C@@H](C)CC)NC1=O)[C@@H](C)CC [Sau-8] (Ac-GLFDIIK[S5]IAE[S5]F-NH2; staple 8-12)	>128 µg/mL	>128 µg/mL	>64 µg/mL	>128 µg/mL	>128 µg/mL	>128 µg/mL	>128 µg/mL	>128 µg/mL	>128 µg/mL	>128 µg/mL	>128 µg/mL	
CC[C@H](C)[C@H](NC(=O)[C@H](CC(=O)O)NC(=O)[C@H](Cc1ccccc1)NC(=O)[C@H](CC(C)C)NC(=O)CNC(C)=O)C(=O)N[C@@]1(C)CCCC=CCCC[C@@](C)(C(=O)N[C@@H](CCC(=O)O)C(=O)N[C@@H](CO)C(=O)N[C@@H](Cc2ccccc2)C(N)=O)NC(=O)[C@H]([C@@H](C)CC)NC(=O)[C@H](CCCCN)NC(=O)[C@H](CCCCN)NC1=O [Sau-6] (Ac-GLFDI[S5]KKI[S5]ESF-NH2; staple 6-10)	>128 µg/mL	>128 µg/mL	>64 µg/mL	>128 µg/mL	>128 µg/mL	>128 µg/mL	>128 µg/mL	>128 µg/mL	>128 µg/mL	>128 µg/mL	>128 µg/mL	
